{"source": "patent US8974801B2", "about": "“Long term sustained release pharmaceutical composition containing aqueous suspension of bisphosphonate” (priority 2006, dated 2015)", "settings": "female, Sprague-Dawley, rat, in vivo", "data": [{"smiles": "NCCCC(O)(P(=O)(O)O)P(=O)(O)O", "note": "[Alendronate Calcium, alendronate calcium]", "values": [{"measurement": "Total Net Bone Absorbed", "value": 770}]}]}
